Data: patent US20200392079A1, “Compound, Photopolymerization Initiator Containing Said Compound, and Photosensitive Resin Composition Containing Said Photopolymerization Initiator” (Nippon Kayaku Kabushiki Kaisha, priority 2018, published 2020)

Test: Solubility evaluation experiment (time required for dissolving in solvent)
Assay type: physicochemical
Protocol: After the components were mixed in a glass container in accordance with the formulation amounts (parts by mass) listed in Table 1, the solution was placed on a hot plate at 50° C. and stirred with a glass bar. The time (minute) required for dissolving was measured to evaluate the solubility.

[1] = 0.50 parts initiator in 1.00 parts (D-1) Cyclopentanon, hot plate 50° C., stirred with glass bar
[2] = 0.50 parts initiator in (D-2) 1-methoxy-2-propanol (PGME), 1.00 parts (1.43 parts for C-5), 50° C.
[3] = 0.50 parts initiator in (D-3) Polyethylene gylcol monomethylether acetate (PGMEA), 1.00-1.67 parts, 50° C.
[4] = 0.50 parts initiator in (D-4) 3-betoxymethanol, 1.11 parts (>5 parts for C-5), 50° C.

SMILES | Stirring time (time required for dissolving) [1] | Stirring time (time required for dissolving) [2] | Stirring time (time required for dissolving) [3] | Stirring time (time required for dissolving) [4]
C=C(C)C(=O)OCCNC(=O)OCC(O)(C(=O)c1ccc(SC)cc1)c1ccc(SC)cc1 (centres unmarked) [Initiator C-1] | 10 min | 19 min | 25 min | 40 min
C=CC(=O)OCCNC(=O)OCC(O)(C(=O)c1ccc(SC)cc1)c1ccc(SC)cc1 (centres unmarked) [Initiator C-2] | 15 min | 12 min | 20 min | 40 min
